We go through 13 compounds from patent publication US20240116985A1, “STAPLED PEPTIDES AND METHODS THEREOF” (priority 2020, published 2024).

Test [1] has as its target T1, beta-catenin/TCF4 engagement (Homo sapiens, UniProt P35222).
T1 construct: expressed in transfected cells; host or cells: HEK293
T1 sequence (P35222 1-781): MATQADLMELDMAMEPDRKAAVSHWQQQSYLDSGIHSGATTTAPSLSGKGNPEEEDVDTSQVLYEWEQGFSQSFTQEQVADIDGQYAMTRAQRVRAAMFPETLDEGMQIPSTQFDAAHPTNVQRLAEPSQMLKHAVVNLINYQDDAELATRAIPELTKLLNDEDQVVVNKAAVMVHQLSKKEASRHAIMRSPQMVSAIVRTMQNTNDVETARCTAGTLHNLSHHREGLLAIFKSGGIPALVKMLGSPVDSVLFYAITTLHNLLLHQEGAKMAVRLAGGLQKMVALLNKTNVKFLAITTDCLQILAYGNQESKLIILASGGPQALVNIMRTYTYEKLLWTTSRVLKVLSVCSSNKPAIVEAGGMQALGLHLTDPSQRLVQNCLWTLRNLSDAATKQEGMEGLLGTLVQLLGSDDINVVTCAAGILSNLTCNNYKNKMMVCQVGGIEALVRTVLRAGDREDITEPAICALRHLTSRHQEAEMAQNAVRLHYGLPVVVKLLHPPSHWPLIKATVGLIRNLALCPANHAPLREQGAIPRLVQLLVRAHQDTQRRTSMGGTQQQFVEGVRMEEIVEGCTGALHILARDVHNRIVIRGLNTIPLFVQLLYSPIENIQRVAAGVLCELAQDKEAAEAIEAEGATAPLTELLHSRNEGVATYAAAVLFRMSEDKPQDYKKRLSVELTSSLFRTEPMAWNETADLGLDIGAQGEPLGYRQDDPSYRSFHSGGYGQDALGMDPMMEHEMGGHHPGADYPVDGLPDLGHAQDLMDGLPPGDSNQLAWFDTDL
The test can be described thus: Nano-BRET target engagement assay (B-cat-Halo & TCF4-Luc in HEK293 cells). Format: cell-based. To be noted: read-out: NanoBRET Abs IC50. (In general: BRET reads energy transfer from a luciferase to a nearby fluorophore.)

Test [2] deals with T2, full-length beta-Catenin (Uniprot ID P35222) (Homo sapiens, UniProt P35222).
T2 construct: 10 nM full-length beta-Catenin (Uniprot ID P35222)
T2 sequence (P35222 1-781): T1 sequence (P35222 1-781)
As to the kind of experiment: Fluorescence polarization IC50 (beta-catenin / 5FAM-TCF4 10-53 competition). Format: binding. To be noted: fluorescence polarization; read-out: beta-Catenin FP IC50.

The structures appear in SMILES notation. A value given as a limit tells only on which side of the number the result lay.

With `CC(=O)N1CCC[C@]12CC=CCCCC1(CCCC=CCCCOC(=O)N3CC[C@@](C(=O)N[C@@H](Cc4ccsc4)C(=O)N[C@@H](Cc4csc5ccccc45)C(=O)N[C@@H](C)C(N)=O)(C3)NC(=O)[C@H](Cc3ccccc3)NC(=O)[C@H](Cc3ccccc3)NC(=O)[C@H](C)NC(=O)[C@H](CCC(N)=O)NC(=O)[C@H](Cc3cccc(C(=O)O)c3)NC(=O)[C@H](CC(=O)O)NC1=O)NC(=O)[C@H](CC(C)(C)C)NC(=O)[C@H](CC(=O)O)NC2=O` (stereo partly drawn) [I-2052, Ac-PL3-Asp-Npg-B5-Asp-3COOHF-Gln-Ala-Phe-Phe-PyrS2-3Thi-BztA-Ala-NH2], the half-maximal inhibitory concentration (IC50) (as a rule, the midpoint of a concentration-inhibition curve) in test [1] was determined as 6 µM; in test [2], 12 nM.
With `CC(=O)N1CCC[C@]12CC=CCCCC1(CCCC=CCCCOC(=O)N3CC[C@@](C(=O)N[C@@H](Cc4ccsc4)C(=O)N[C@@H](Cc4csc5ccccc45)C(=O)N[C@@H](C)C(N)=O)(C3)NC(=O)[C@H](C)NC(=O)[C@H](Cc3ccccc3)NC(=O)[C@H](C)NC(=O)[C@H](CCC(N)=O)NC(=O)[C@H](Cc3cccc(C(=O)O)c3)NC(=O)[C@H](CC(=O)O)NC1=O)NC(=O)[C@H](CC(C)(C)C)NC(=O)[C@H](CC(=O)O)NC2=O` (stereo partly drawn) [I-2053, Ac-PL3-Asp-Npg-B5-Asp-3COOHF-Gln-Ala-Phe-Ala-PyrS2-3Thi-BztA-Ala-NH2], the IC50 is 5 µM in test [1] and 11 nM in test [2].
For `CC(=O)N1CCC[C@]12CC=CCCCC1(CCCC=CCCCOC(=O)N3CC[C@@](C(=O)N[C@@H](Cc4ccsc4)C(=O)N[C@@H](Cc4csc5ccccc45)C(=O)N[C@H](C(N)=O)C(C)C)(C3)NC(=O)[C@H](CC(C)C)NC(=O)[C@H](Cc3ccccc3)NC(=O)[C@H](C)NC(=O)[C@H](CCC(N)=O)NC(=O)[C@H](Cc3cccc(C(=O)O)c3)NC(=O)[C@H](CC(=O)O)NC1=O)NC(=O)[C@H](CC(C)(C)C)NC(=O)[C@H](CC(=O)O)NC2=O` (stereo partly drawn) [I-2055, Ac-PL3-Asp-Npg-B5-Asp-3COOHF-Gln-Ala-Phe-Leu-PyrS2-3Thi-BztA-Val-NH2] the same measures were 10.5 µM and 13 nM.
In the case of `CC(=O)N1CCC[C@]12CC=CCCCC1(CCCC=CCCCOC(=O)N3CC[C@@](C(=O)N[C@@H](Cc4ccsc4)C(=O)N[C@@H](Cc4csc5ccccc45)C(=O)N[C@@H](CC(C)C)C(N)=O)(C3)NC(=O)[C@H](CC(C)C)NC(=O)[C@H](Cc3ccccc3)NC(=O)[C@H](C)NC(=O)[C@H](CCC(N)=O)NC(=O)[C@H](Cc3cccc(C(=O)O)c3)NC(=O)[C@H](CC(=O)O)NC1=O)NC(=O)[C@H](CC(C)(C)C)NC(=O)[C@H](CC(=O)O)NC2=O` (stereo partly drawn) [I-2056, Ac-PL3-Asp-Npg-B5-Asp-3COOHF-Gln-Ala-Phe-Leu-PyrS2-3Thi-BztA-Leu-NH2], the IC50 was 6.5 µM in test [1] and 16 nM in test [2].
Regarding `CC(=O)N1CCC[C@]12CC=CCCCC1(CCCC=CCCCOC(=O)N3CC[C@@](C(=O)N[C@@H](Cc4ccccc4C(F)(F)F)C(=O)N[C@@H](Cc4csc5ccccc45)C(=O)N[C@@H](C)C(N)=O)(C3)NC(=O)[C@H](CC(C)C)NC(=O)[C@H](Cc3ccccc3)NC(=O)[C@H](C)NC(=O)[C@H](CC(N)=O)NC(=O)[C@H](Cc3cccc(C(=O)O)c3)NC(=O)[C@H](CC(=O)O)NC1=O)NC(=O)[C@H](CC(C)(C)C)NC(=O)[C@H](CC(=O)O)NC2=O` (stereo partly drawn) [I-2058, Ac-PL3-Asp-Npg-B5-Asp-3COOHF-Asn-Ala-Phe-Leu-PyrS2-2F3MeF-BztA-Ala-NH2], the IC50 in test [1] turned out to be 3.9 µM; in test [2] it was 10 nM.
Taken in the same sequence, the figures for `CC(=O)N1CCC[C@]12CC=CCCCC1(CCCC=CCCCOC(=O)N3CC[C@@](C(=O)N[C@@H](Cc4ccccc4C(F)(F)F)C(=O)N[C@@H](Cc4csc5ccccc45)C(=O)N[C@@H](C)C(N)=O)(C3)NC(=O)[C@H](CC(C)C)NC(=O)[C@H](Cc3ccccc3)NC(=O)[C@H](C)NC(=O)[C@H](CO)NC(=O)[C@H](Cc3cccc(C(=O)O)c3)NC(=O)[C@H](CC(=O)O)NC1=O)NC(=O)[C@H](CC(C)(C)C)NC(=O)[C@H](CC(=O)O)NC2=O` (stereo partly drawn) [I-2059, Ac-PL3-Asp-Npg-B5-Asp-3COOHF-Ser-Ala-Phe-Leu-PyrS2-2F3MeF-BztA-Ala-NH2] were 4.8 µM and 38 nM.
Taken in the same sequence, the figures for `CC(=O)N1CCC[C@]12CC=CCCCC1(CCCC=CCCCOC(=O)N3CC[C@@](C(=O)N[C@@H](Cc4ccccc4C(F)(F)F)C(=O)N[C@@H](Cc4csc5ccccc45)C(=O)N[C@@H](C)C(N)=O)(C3)NC(=O)[C@H](CC(C)C)NC(=O)[C@H](Cc3ccccc3)NC(=O)[C@H](C)NC(=O)[C@H]([C@@H](C)O)NC(=O)[C@H](Cc3cccc(C(=O)O)c3)NC(=O)[C@H](CC(=O)O)NC1=O)NC(=O)[C@H](CC(C)(C)C)NC(=O)[C@H](CC(=O)O)NC2=O` (stereo partly drawn) [I-2060, Ac-PL3-Asp-Npg-B5-Asp-3COOHF-Thr-Ala-Phe-Leu-PyrS2-2F3MeF-BztA-Ala-NH2] were 9.6 µM and 56 nM.
For `CC(=O)N1CCC[C@]12CC=CCCCC1(CCCC=CCCCOC(=O)N3CC[C@@](C(=O)N[C@@H](Cc4ccccc4Cl)C(=O)N[C@@H](Cc4csc5ccccc45)C(=O)N[C@@H](CCS(C)(=O)=O)C(N)=O)(C3)NC(=O)[C@H](CC(C)C)NC(=O)[C@H](Cc3ccccc3)NC(=O)[C@H](C)NC(=O)[C@H](C)NC(=O)[C@H](Cc3cccc(C(=O)O)c3)NC(=O)[C@H](CC(=O)O)NC1=O)NC(=O)[C@H](CC(C)(C)C)NC(=O)[C@H](CC(=O)O)NC2=O` (stereo partly drawn) [I-2062, Ac-PL3-Asp-Npg-B5-Asp-3COOHF-Ala-Ala-Phe-Leu-PyrS2-2C1F-BztA-Met2O-NH2] the same measures were 3 µM and 41 nM.
With `CC(=O)N1CCC[C@]12CC=CCCCC1(CCCC=CCCCOC(=O)N3CC[C@@](C(=O)N[C@@H](Cc4ccccc4C(F)(F)F)C(=O)N[C@@H](Cc4csc5ccccc45)C(=O)N[C@@H](CCS(C)(=O)=O)C(N)=O)(C3)NC(=O)[C@H](CC(C)C)NC(=O)[C@H](Cc3ccccc3)NC(=O)[C@H](C)NC(=O)[C@H](C)NC(=O)[C@H](Cc3cccc(C(=O)O)c3)NC(=O)[C@H](CC(=O)O)NC1=O)NC(=O)[C@H](CC(C)(C)C)NC(=O)[C@H](CC(=O)O)NC2=O` (stereo partly drawn) [I-2063, Ac-PL3-Asp-Npg-B5-Asp-3COOHF-Ala-Ala-Phe-Leu-PyrS2-2F3MeF-BztA-Met2O-NH2], the half-maximal inhibitory concentration (IC50) in test [1] came to 3.5 µM; in test [2], 56 nM.
As to `CC(=O)N1CCC[C@]12CC=CCCCC1(CCCC=CCCCOC(=O)N3CC[C@@](C(=O)N[C@@H](Cc4ccsc4)C(=O)N[C@@H](Cc4csc5ccccc45)C(=O)N[C@@H](C)C(N)=O)(C3)NC(=O)[C@H](CC(C)C)NC(=O)[C@H](Cc3ccccc3)NC(=O)[C@H](C)NC(=O)[C@H](CCS(C)(=O)=O)NC(=O)[C@H](Cc3cccc(C(=O)O)c3)NC(=O)[C@H](CC(=O)O)NC1=O)NC(=O)[C@H](CC(C)(C)C)NC(=O)[C@H](CC(=O)O)NC2=O` (stereo partly drawn) [I-2064, Ac-PL3-Asp-Npg-B5-Asp-3COOHF-Met2O-Ala-Phe-Leu-PyrS2-3Thi-BztA-Ala-NH2], the IC50 in test [1] was 11.8 µM; in test [2] it was 16 nM.
With `CC(=O)N1CCC[C@]12CC=CCCCC1(CCCC=CCCCOC(=O)N3CC[C@@](C(=O)N[C@@H](Cc4ccccc4)C(=O)N[C@@H](Cc4csc5ccccc45)C(=O)N[C@@H](C)C(N)=O)(C3)NC(=O)[C@H](CC(N)=O)NC(=O)[C@H](Cc3ccccc3)NC(=O)[C@H](C)NC(=O)[C@H](CCCCNC(C)C)NC(=O)[C@H](CCC(N)=O)NC(=O)[C@H](CC(=O)O)NC1=O)NC(=O)[C@H](CC1CCCCC1)NC(=O)[C@H](CC(N)=O)NC2=O` (stereo partly drawn) [I-2065, Ac-PL3-Asn-Cha-B5-Asp-Gln-iPrLys-Ala-Phe-Asn-PyrS2-Phe-BztA-Ala-NH2], the IC50 was above 20 µM in test [1] and 144 nM in test [2].
On to `CC(=O)N1CCC[C@]12CC=CCCCC1(CCCC=CCCCOC(=O)N3CC[C@@](C(=O)N[C@@H](Cc4ccccc4)C(=O)N[C@@H](Cc4csc5ccccc45)C(=O)N[C@@H](CCO)C(N)=O)(C3)NC(=O)[C@H](CC(N)=O)NC(=O)[C@H](Cc3ccccc3)NC(=O)[C@H](C)NC(=O)[C@H](CCC(N)=O)NC(=O)[C@H](CCC(N)=O)NC(=O)[C@H](CC(=O)O)NC1=O)NC(=O)[C@H](CC1CCCCC1)NC(=O)[C@H](CC(N)=O)NC2=O` (stereo partly drawn) [I-2067, Ac-PL3-Asn-Cha-B5-Asp-Gln-Gln-Ala-Phe-Asn-PyrS2-Phe-BztA-Hse-NH2], for which the IC50 in test [1] is above 20 µM; in test [2] it was 180 nM.
With `CC(=O)N1CCC[C@]12CC=CCCCC1(CCCC=CCCCOC(=O)N3CC[C@@](C(=O)N[C@@H](Cc4ccccc4)C(=O)N[C@@H](Cc4csc5ccccc45)C(=O)N[C@@H](Cc4ccccc4)C(N)=O)(C3)NC(=O)[C@H](CC(N)=O)NC(=O)[C@H](Cc3ccccc3)NC(=O)[C@H](C)NC(=O)[C@H](CCCCNC(C)C)NC(=O)[C@H](CCC(N)=O)NC(=O)[C@H](CC(=O)O)NC1=O)NC(=O)[C@H](CC1CCCCC1)NC(=O)[C@H](CC(N)=O)NC2=O` (stereo partly drawn) [I-2068, Ac-PL3-Asn-Cha-B5-Asp-Gln-iPrLys-Ala-Phe-Asn-PyrS2-Phe-BztA-Phe-NH2], the IC50 in test [1] is above 20 µM; in test [2] it was 338 nM.
